The test system of the test is CD2F1 mice, L1210 leukemia ip, survival T/C. Briefly: NCI In Vivo Anticancer Drug Screen. Data for tumor model L1210 Leukemia (intraperitoneal) in CD2F1 (CDF1) mice. The settings on record: higher = longer survival. The essentials: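 In this screen, transplantable tumors were grown in mice given either the compound or its vehicle. Results were expressed as the treated measurement relative to the control measurement.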

[1] abbreviates: endpoint: mean survival time, dose: 100.0 mg/kg/injection, schedule: Q04DX002 (ip), vehicle: saline with Tween-80.
Where [2] appears, read: endpoint: mean survival time, dose: 200.0 mg/kg/injection, schedule: Q04DX002 (ip), vehicle: saline with Tween-80.

SMILES strings stand for the structures. “And” between values parts separate entries of the source, which are not always exact repeats. Equal entries are not always repeated. Toxic doses and inconclusive results are not listed. Residues, ends and D or L forms follow the SMILES beside them.

For the compound `CC(C)(C)OC(=O)NC(C(=O)O)C1=CCC=CC1` (configuration not stated), the T/C (endpoint: mean survival time, dose: 25.0 mg/kg/injection, schedule: Q01DX009 (ip), vehicle: other) was 100 % of control; the T/C (endpoint: mean survival time, dose: 50.0 mg/kg/injection, schedule: Q01DX009 (ip), vehicle: other) is 96 % of control; the T/C (endpoint: mean survival time, dose: 50.0 mg/kg/injection, schedule: Q04DX002 (ip), vehicle: other) was 101 % of control; the T/C (endpoint: mean survival time, dose: 50.0 mg/kg/injection, schedule: Q04DX003 (ip), vehicle: other) is 103 % of control; the T/C (endpoint: mean survival time, dose: 100.0 mg/kg/injection, schedule: Q01DX001 (ip), vehicle: other) was 106 % of control; the T/C (endpoint: mean survival time, dose: 100.0 mg/kg/injection, schedule: Q01DX009 (ip), vehicle: other) is 91 % of control. For the same compound, the T/C (endpoint: mean survival time, dose: 100.0 mg/kg/injection, schedule: Q04DX002 (ip), vehicle: other) was 101 % of control; the T/C (endpoint: mean survival time, dose: 100.0 mg/kg/injection, schedule: Q04DX003 (ip), vehicle: other) is 106 % of control; the T/C (endpoint: mean survival time, dose: 200.0 mg/kg/injection, schedule: Q01DX001 (ip), vehicle: other) was 99 % of control; the T/C (endpoint: mean survival time, dose: 200.0 mg/kg/injection, schedule: Q01DX009 (ip), vehicle: other) is 91 % of control; the T/C (endpoint: mean survival time, dose: 200.0 mg/kg/injection, schedule: Q04DX002 (ip), vehicle: other) was 94 % of control; the T/C (endpoint: mean survival time, dose: 200.0 mg/kg/injection, schedule: Q04DX003 (ip), vehicle: other) is 97 % of control. Besides, the T/C (endpoint: mean survival time, dose: 400.0 mg/kg/injection, schedule: Q01DX001 (ip), vehicle: other) was 99 % of control; the T/C (endpoint: mean survival time, dose: 400.0 mg/kg/injection, schedule: Q04DX002 (ip), vehicle: other) is 101 % of control; the T/C (endpoint: mean survival time, dose: 400.0 mg/kg/injection, schedule: Q04DX003 (ip), vehicle: other) is 97 % of control; the T/C (endpoint: mean survival time, dose: 600.0 mg/kg/injection, schedule: Q01DX001 (ip), vehicle: other) is 96 % of control.
For `c1ccc(CCSc2ncnc3nc[nH]c23)cc1`, the T/C (endpoint: mean survival time, dose: 100.0 mg/kg/injection, schedule: Q01DX007 (ip), vehicle: saline) was 103 % of control; the T/C (endpoint: mean survival time, dose: 100.0 mg/kg/injection, schedule: Q01DX009 (ip), vehicle: saline) was 122 % of control; the T/C (endpoint: mean survival time, dose: 100.0 mg/kg/injection, schedule: Q03DX003 (ip), vehicle: saline) was 96 % of control; the T/C (endpoint: mean survival time, dose: 100.0 mg/kg/injection, schedule: Q04DX003 (ip), vehicle: saline) is 98 % of control; the T/C (endpoint: mean survival time, dose: 200.0 mg/kg/injection, schedule: Q01DX007 (ip), vehicle: saline) is 111 % of control; the T/C (endpoint: mean survival time, dose: 200.0 mg/kg/injection, schedule: Q01DX009 (ip), vehicle: saline) is 113 % of control. Besides, the T/C (endpoint: mean survival time, dose: 200.0 mg/kg/injection, schedule: Q03DX003 (ip), vehicle: saline) was 102 % of control; the T/C (endpoint: mean survival time, dose: 200.0 mg/kg/injection, schedule: Q04DX003 (ip), vehicle: saline) was 103 % of control; the T/C (endpoint: mean survival time, dose: 400.0 mg/kg/injection, schedule: Q01DX007 (ip), vehicle: saline) was 120 % of control; the T/C (endpoint: mean survival time, dose: 400.0 mg/kg/injection, schedule: Q01DX009 (ip), vehicle: saline) was 124 % of control; the T/C (endpoint: mean survival time, dose: 400.0 mg/kg/injection, schedule: Q03DX003 (ip), vehicle: saline) is 106 % of control; the T/C (endpoint: mean survival time, dose: 400.0 mg/kg/injection, schedule: Q04DX003 (ip), vehicle: saline) was 106 % of control.
On to `CN(C)CCCNC1=C(Cl)C(=O)C(NCCCN(C)C)=C(Cl)C1=O`, for which the T/C (endpoint: median survival time, dose: 6.25 mg/kg/injection, schedule: Q01DX009 (ip), vehicle: Klucel (hydroxypropylcellulose) (HPC)) was 97 % of control; the T/C (endpoint: median survival time, dose: 12.5 mg/kg/injection, schedule: Q01DX009 (ip), vehicle: Klucel (hydroxypropylcellulose) (HPC)) was 94 % of control; the T/C (endpoint: median survival time, dose: 25.0 mg/kg/injection, schedule: Q01DX009 (ip), vehicle: Klucel (hydroxypropylcellulose) (HPC)) is 96 % of control; the T/C (endpoint: median survival time, dose: 50.0 mg/kg/injection, schedule: Q01DX009 (ip), vehicle: Klucel (hydroxypropylcellulose) (HPC)) was 97 % of control.
Take `CCN(CC)CCCC(C)N` (configuration not stated): where the note is “endpoint: mean survival time, dose: 50.0 mg/kg/injection, schedule: Q04DX003 (ip), vehicle: saline”, the T/C was 101 % of control.
For the compound `O=[N+]([O-])c1ccc(CSCc2ccc([N+](=O)[O-])cc2)cc1`, the T/C reads like this: (endpoint: mean survival time, dose: 50.0 mg/kg/injection, schedule: Q04DX003 (ip), vehicle: Klucel (hydroxypropylcellulose) (HPC)) 98 % of control; (endpoint: mean survival time, dose: 100.0 mg/kg/injection, schedule: Q04DX003 (ip), vehicle: Klucel (hydroxypropylcellulose) (HPC)) 92 % of control; (endpoint: mean survival time, dose: 200.0 mg/kg/injection, schedule: Q04DX003 (ip), vehicle: Klucel (hydroxypropylcellulose) (HPC)) 97 % of control.
Turning to `C=CCC(C)(C#N)C1C=CCC1` (configuration not stated), the T/C runs as follows: (endpoint: mean survival time, dose: 100.0 mg/kg/injection, schedule: Q01DX009 (ip), vehicle: saline with Tween-80) 105 % of control; (endpoint: mean survival time, dose: 100.0 mg/kg/injection, schedule: Q04DX003 (ip), vehicle: saline with Tween-80) 102 % of control; (endpoint: mean survival time, dose: 200.0 mg/kg/injection, schedule: Q01DX009 (ip), vehicle: saline with Tween-80) 102 % of control; (endpoint: mean survival time, dose: 200.0 mg/kg/injection, schedule: Q04DX003 (ip), vehicle: saline with Tween-80) 100 % of control; (endpoint: mean survival time, dose: 400.0 mg/kg/injection, schedule: Q01DX009 (ip), vehicle: saline with Tween-80) 103 % of control; (endpoint: mean survival time, dose: 400.0 mg/kg/injection, schedule: Q04DX003 (ip), vehicle: saline with Tween-80) 93 % of control.
In the case of `Cc1c2c[n+](CCCCCCCC[n+]3ccc4c(C)c5c(c(C)c4c3)c3ccccc3n5CCO)ccc2c(C)c2c1c1ccccc1n2CCO`, the T/C runs as follows: (endpoint: mean survival time, dose: 1.56 mg/kg/injection, schedule: Q04DX003 (ip), vehicle: distilled water + Tween-80) 119 % of control; (endpoint: mean survival time, dose: 6.25 mg/kg/injection, schedule: Q04DX003 (ip), vehicle: distilled water + Tween-80) 150 % of control and 159 % of control; (endpoint: mean survival time, dose: 12.5 mg/kg/injection, schedule: Q04DX003 (ip), vehicle: distilled water + Tween-80) 114 % of control.
Regarding `O=c1ccn(CC(O)c2cc3ccccc3[nH]2)c(=O)[nH]1` (configuration not stated), the T/C under setting [1] was 112 % of control; the T/C under setting [2] was 112 % of control; the T/C (endpoint: mean survival time, dose: 400.0 mg/kg/injection, schedule: Q04DX002 (ip), vehicle: saline with Tween-80) is 108 % of control.
In the case of `CC(Cc1ccccc1)NNC(C)Cc1ccccc1` (configuration not stated), the T/C (endpoint: mean survival time, dose: 75.0 mg/kg/injection, schedule: Q01DX001 (ip), vehicle: saline) was 98 % of control; the T/C (endpoint: mean survival time, dose: 150.0 mg/kg/injection, schedule: Q01DX001 (ip), vehicle: saline) was 102 % of control; the T/C (endpoint: mean survival time, dose: 300.0 mg/kg/injection, schedule: Q01DX001 (ip), vehicle: saline) was 97 % of control.
Consider `Cc1ccc(OC(=O)Nc2cccc3ccccc23)cc1C`, for which the T/C is 95 % of control under setting [1] and 91 % of control under setting [2].
For the compound `CC(O)C(NC(=O)C(N)CCCN=C(N)N)C(=O)NC(Cc1ccccc1)C(=O)O` (stereo not drawn) (H-Arg-Thr-Phe-OH; configuration not given here), the T/C (endpoint: mean survival time, dose: 12.5 mg/kg/injection, schedule: Q04DX002 (ip), vehicle: saline) is 98 % of control; the T/C (endpoint: mean survival time, dose: 25.0 mg/kg/injection, schedule: Q04DX002 (ip), vehicle: saline) was 95 % of control; the T/C (endpoint: mean survival time, dose: 50.0 mg/kg/injection, schedule: Q04DX002 (ip), vehicle: saline) was 98 % of control.
As for `O=c1[nH]c2ccccc2nc1CBr`, the T/C (endpoint: mean survival time, dose: 3.75 mg/kg/injection, schedule: Q01DX009 (ip), vehicle: saline with Tween-80) is 98 % of control; the T/C (endpoint: mean survival time, dose: 7.5 mg/kg/injection, schedule: Q01DX009 (ip), vehicle: saline with Tween-80) is 110 % of control; the T/C (endpoint: mean survival time, dose: 12.5 mg/kg/injection, schedule: Q01DX009 (ip), vehicle: saline with Tween-80) is 113 % of control; the T/C (endpoint: mean survival time, dose: 15.0 mg/kg/injection, schedule: Q01DX009 (ip), vehicle: saline with Tween-80) is 104 % of control.
Consider `Cc1cc(I)cs1`, for which the T/C was 108 % of control (endpoint: mean survival time, dose: 100.0 mg/kg/injection, schedule: Q01DX001 (ip), vehicle: saline) and 102 % of control (endpoint: mean survival time, dose: 200.0 mg/kg/injection, schedule: Q01DX001 (ip), vehicle: saline).

For the origin of these results see PubChem BioAssay AID256 (DTP/NCI, 2004).
